Test results published in patent US11331299B2, “Medicinal use of serrulatane diterpenes” (The University of Sydney, priority 2016, dated 2022).
pEC50, pIC50: −log10 of the molar value. Like-named read-outs stand apart in the source and are kept apart here.

System: 280 human cancer cell lines
Experiment: OncoPanel cell proliferation assay (10-day)
Type: cell-based
Conditions: Homo sapiens; for pIC50: read-out: Cell Count IC50; for pEC50: read-out: Cell Count EC50
[1] = SW872, SW872, Soft Tissue - Sarcoma
[2] = SW 954, SW954, Female GU - Vulva
[3] = SW982, SW982, Soft Tissue - Sarcoma
[4] = SW1353, SW1353, Soft Tissue - Osteosarcoma
[5] = TE 125.T, Soft Tissue - Sarcoma
[6] = TE 381.T, Soft Tissue - Sarcoma
[7] = U2OS, Soft Tissue - Osteosarcoma
[8] = U-118-MG, U-118 MG, CNS - Glioma
[9] = VA-ES-BJ, Soft Tissue - Sarcoma
[10] = WM 266-4, WM-266-4, Skin (Melanoma)

CC(C)=CCC[C@@H]1C(O)Oc2c(C)cc(O)c3c2[C@H]1CC[C@H]3C (some centres unmarked) [Compound 2, 5,18-epoxyserrulat-14-en-8,18-diol]
pIC50 (SW837, SW837, Colon): < 4.52 | pEC50 [1]: 5.35 | GI50 (SW872, SW872, Soft Tissue - Sarcoma, read-out: Cell Count GI50): 4.45 µM | pIC50 [1]: 5.35 | pEC50 (SW900, SW900, Lung - SCLC): 4.58 | GI50 (SW900, SW900, Lung - SCLC, read-out: Cell Count GI50): 26.7 µM | pIC50 (SW900, SW900, Lung - SCLC): 4.57 | pEC50 (SW948, SW948, Colon): 4.83 | GI50 (SW948, SW948, Colon, read-out: Cell Count GI50): 14.5 µM | pIC50 (SW948, SW948, Colon): 4.83 | pEC50 [2]: < 4.52 | GI50 (SW 954, SW954, Female GU - Vulva, read-out: Cell Count GI50): > 30 µM | pIC50 [2]: < 4.52 | pEC50 [3]: 5.12 | GI50 (SW982, SW982, Soft Tissue - Sarcoma, read-out: Cell Count GI50): 7.53 µM | pIC50 [3]: 5.12 | pEC50 (SW1088, SW1088, CNS - Glioma): 4.97 | GI50 (SW1088, SW1088, CNS - Glioma, read-out: Cell Count GI50): 10.5 µM | pIC50 (SW1088, SW1088, CNS - Glioma): 4.97 | pEC50 [4]: 5.02 | GI50 (SW1353, SW1353, Soft Tissue - Osteosarcoma, read-out: Cell Count GI50): 9.46 µM | pIC50 [4]: 5.02 | pEC50 (SW1417, SW1417, Colon): 4.64 | GI50 (SW1417, SW1417, Colon, read-out: Cell Count GI50): 21.8 µM | pIC50 (SW1417, SW1417, Colon): 4.64 | pEC50 (SW1463, SW1463, Colon): < 4.52 | GI50 (SW1463, SW1463, Colon, read-out: Cell Count GI50): > 30 µM | pIC50 (SW1463, SW1463, Colon): < 4.52 | pEC50 (SW1783, SW1783, CNS - Glioma): 4.99 | GI50 (SW1783, SW1783, CNS - Glioma, read-out: Cell Count GI50): 10.5 µM | pIC50 (SW1783, SW1783, CNS - Glioma): 4.96 | pEC50 (SW-403, SW403, Colon): < 4.52 | GI50 (SW-403, SW403, Colon, read-out: Cell Count GI50): > 30 µM | pIC50 (SW-403, SW403, Colon): < 4.52 | pEC50 (SW-620, SW620, Colon): 4.88 | GI50 (SW-620, SW620, Colon, read-out: Cell Count GI50): 13.2 µM | pIC50 (SW-620, SW620, Colon): 4.88 | pEC50 (SiHa, Female GU - Cervix): 4.55 | GI50 (SiHa, Female GU - Cervix, read-out: Cell Count GI50): 25.8 µM | pIC50 (SiHa, Female GU - Cervix): 4.55 | pEC50 (T24, Bladder): 4.69 | GI50 (T24, Bladder, read-out: Cell Count GI50): 20.3 µM | pIC50 (T24, Bladder): 4.69 | pEC50 (T47D, Breast): 4.99 | GI50 (T47D, Breast, read-out: Cell Count GI50): 9.4 µM | pIC50 (T47D, Breast): 4.99 | pEC50 (T98G, CNS - Glioma): 4.72 | GI50 (T98G, CNS - Glioma, read-out: Cell Count GI50): 19 µM | pIC50 (T98G, CNS - Glioma): 4.72 | pEC50 (TCC-SUP, TCCSUP, Bladder): 5.09 | GI50 (TCC-SUP, TCCSUP, Bladder, read-out: Cell Count GI50): 7.78 µM | pIC50 (TCC-SUP, TCCSUP, Bladder): 5.09 | pEC50 [5]: < 4.52 | GI50 (TE 125.T, Soft Tissue - Sarcoma, read-out: Cell Count GI50): 28.7 µM | pIC50 [5]: < 4.52 | pEC50 [6]: 5.09 | GI50 (TE 381.T, Soft Tissue - Sarcoma, read-out: Cell Count GI50): 7.99 µM | pIC50 [6]: 5.09 | pEC50 (TF-1, Leukemia): 5.56 | GI50 (TF-1, Leukemia, read-out: Cell Count GI50): 2.44 µM | pIC50 (TF-1, Leukemia): 5.56 | pEC50 (THP-1, Thp1, Leukemia): 5.27 | GI50 (THP-1, Thp1, Leukemia, read-out: Cell Count GI50): 5.61 µM | pIC50 (THP-1, Thp1, Leukemia): 5.24 | pEC50 (TUR, Lymphoma): 5.58 | GI50 (TUR, Lymphoma, read-out: Cell Count GI50): > 30 µM | pIC50 (TUR, Lymphoma): < 4.52 | pEC50 [7]: 4.90 | GI50 (U2OS, Soft Tissue - Osteosarcoma, read-out: Cell Count GI50): 12.7 µM | pIC50 [7]: 4.90 | pEC50 (U138-MG, U-138MG, CNS - Glioma): < 4.52 | GI50 (U138-MG, U-138MG, CNS - Glioma, read-out: Cell Count GI50): > 30 µM | pIC50 (U138-MG, U-138MG, CNS - Glioma): < 4.52 | pEC50 (U266B1, Myeloma): 5.04 | GI50 (U266B1, Myeloma, read-out: Cell Count GI50): 9.01 µM | pIC50 (U266B1, Myeloma): 5.03 | pEC50 (U-87 MG, CNS - Glioma): < 4.52 | GI50 (U-87 MG, CNS - Glioma, read-out: Cell Count GI50): > 30 µM | pIC50 (U-87 MG, CNS - Glioma): < 4.52 | pEC50 [8]: 4.53 | GI50 (U-118-MG, U-118 MG, CNS - Glioma, read-out: Cell Count GI50): 29.4 µM | pIC50 [8]: 4.53 | pEC50 (UMUC3, UM-UC-3, Bladder): 5.28 | GI50 (UMUC3, UM-UC-3, Bladder, read-out: Cell Count GI50): 5.74 µM | pIC50 (UMUC3, UM-UC-3, Bladder): 5.24 | pEC50 [9]: < 4.52 | GI50 (VA-ES-BJ, Soft Tissue - Sarcoma, read-out: Cell Count GI50): > 30 µM | pIC50 [9]: < 4.52 | pEC50 [10]: 5.19 | GI50 (WM 266-4, WM-266-4, Skin (Melanoma), read-out: Cell Count GI50): 6.25 µM | pIC50 [10]: 5.19 | pEC50 (WiDr, Colon): 4.84 | GI50 (WiDr, Colon, read-out: Cell Count GI50): 14.4 µM | pIC50 (WiDr, Colon): 4.84 | pEC50 (Y79, Eye): 5.18 | GI50 (Y79, Eye, read-out: Cell Count GI50): 7.41 µM | pIC50 (Y79, Eye): 5.12 | pEC50 (YAPC, Pancreas): 4.89 | GI50 (YAPC, Pancreas, read-out: Cell Count GI50): 12.9 µM | pIC50 (YAPC, Pancreas): 4.89 | GI50 (strong: J-RT3-T3-5, Jurkat, MOLT-3, NALM-6, TF-1, RPMI8226, SKO-007, RD, read-out: GI50): 1 to 2.96 µM
